For the experiment, the system named is splenocytes from the mice vaccinated with Top2αC RNA/DCs. As to the kind of experiment: IFN-γ ELISA of splenocytes stimulated with Top2αC-derived peptides. As to conditions: 1 μg/ml peptides, three days, compared to other peptides. It counts as cell-based, mouse. How it is done:
The 5 Top2αC-derived peptides binding to MHC class I molecules (H-2 Kb) with a high score were selected by BIMAS and […], and in order to determine T lymphocyte epitopes of Top2αC, splenocytes from the mice vaccinated with Top2αC RNA/DCs were stimulated with Top2αC-derived peptides, and then IFN-γ production was determined by ELISA.
Splenocytes (2×10^5 cells/200 μl) of a mouse vaccinated with Top2αC RNA/DCs were incubated with 1 μg/ml peptides in a round-bottomed 96-well plate. Three days later, the plate was centrifuged and 100 μl of the supernatant was removed from each well. The level of IFN-γ was determined by ELISA (eBioscience, San Diego, USA).
In general terms: An ELISA detects its analyte on a solid surface through an enzyme-linked reagent.

Consider “DSDEDFSGL [p1327, Top2αC-derived peptide, location 1327-1355 as printed]”, for which the IFN-γ production entry is given as “higher level”.

The record behind these values is US20110287442A1, “Tumor Antigen Protein, Gene, or Peptides from Topoisimerase 2 Alpha” (CATHOLIC UNIVERSITY INDUSTRY ACADEMIC COOPERATION FOUNDATION, priority 2010, published 2011).
